Earlier results, collected in patent publication US6572638B1, “Method of controlling body temperature while inhibiting thermoregulatory responses” (Radiant Medical, Inc., priority 1999, dated 2003).

Tested on: shivering threshold
Settings: patients at normal temperature warmed until sweating then cooled until shivering occurred; Talke, et al., Anesthesiology 87(4):835-841, 1997

| SMILES | effect on shivering threshold |
| --- | --- |
| Cc1cccc([C@H](C)c2cnc[nH]2)c1C [dexmedetomidine] | able to lower the shivering threshold |
| Clc1cccc(Cl)c1N=C1NCCN1 [clonidine] | able to lower the shivering threshold |
